Key:
[1] = tested on: RANKL mRNA in lymphocytes; test: RT-PCR of RANKL mRNA in lymphocytes of periodontitis patients; assay type: cell-based, human; conditions: stimulation of lymphocytes of periodontitis patients
[2] = tested on: Peripheral blood monocytes derived from severe periodontitis patients; test: Immunostaining of peripheral blood monocytes with anti-RANKL and anti-CD3 antibody; assay type: cell-based, human; conditions: stimulation of cells from severe periodontitis patients
Excerpt: Peripheral blood monocytes derived from severe periodontitis patients were stimulated with full-length human Keratin 6 (FL) or peptide 1 (K6F), and immunostained with anti-RANKL antibody and anti-CD3 antibody.

[3] = tested on: Lymphocytes obtained from periodontitis patients and healthy subjects (T cell proliferation); test: Drug-induced lymphocyte stimulation test (DLST); assay type: cell-based, human; conditions: for T cell proliferation induction potency in DLST: periodontitis patients as compared to healthy subjects
Excerpt: Lymphocytes obtained from periodontitis patients and healthy subjects were subjected to a drug-induced lymphocyte stimulation test (DLST) using full-length human Keratin 6 and peptide 1 (fragment thereof) (periodontitis patients: N=22, healthy subjects: N=5).

[4] = tested on: MMP-2, MMP-3, MCP-1, IL-6, IL-8 in gingiva fibroblasts; test: Cytokine and chemokine expression in stimulated gingiva fibroblasts, Western blot; assay type: cell-based; conditions: stimulation 2-24 hr
Protocol: (§1) Gingiva fibroblasts were stimulated with peptide 1 (K6F), recombinant Keratin 6 (RK6, Rec-K6) or scramble peptide (Sc) for 2-24 hr, and the expression levels of MMP-2, MMP-3, MCP-1, IL-6, IL-8 were measured by Western blot analysis. […] Then, gingiva fibroblast (GF) and gingival epithelial cell (GEC) were stimulated with peptide 1 (K6F) or scramble peptide (Sc), respectively, for 15 min-2 hr, and phosphorylation of p38 in GF, as well as expression of IκB-α and phosphorylation of p65 NFκB and activation of representative serine/threonine kinase in GEC were examined.

RANKL in lymphocytes = test: RANKL expression in stimulated lymphocytes, Western blot with anti RANKL antibody; assay type: cell-based, human
Protocol: Blood samples were collected from progressive (untreated) periodontitis patients, periodontitis patients during treatment and periodontitis patients after treatment to obtain lymphocytes, stimulated with full-length human Keratin 6 (K6; 2 or 4 μg/ml) or peptide 1 (K6F; 60 or 30 μg/ml), expression of RANKL in lymphocytes was examined by Western blot analysis using anti RANKL antibody. […] Fluorescent staining was performed to examine induction of lymphoblast formation by the stimulation with full-length human Keratin 6 or peptide 1. As a result, it was correlated well with the expression of RANKL mRNA (FIG. 8C).

[5] = tested on: ERK and Akt in gingival epithelial cell (GEC); test: Activation of serine/threonine kinases in stimulated gingival epithelial cell; assay type: cell-based; conditions: stimulation 15 min-2 hr
Protocol: as §1

gingiva fibroblast (GF) = test: Binding of FITC-labeled peptide to various cells, confocal microscope; conditions: gingiva fibroblast compared to other cells
Excerpt: Various cells were stimulated with FITC-labeled peptide 1 (K6F, P-1), observed under a confocal microscope, and the binding level to K6F was shown by percentage higher than that of the control cell (FIG. 14).

[6] = tested on: T cells obtained from peripheral blood of the periodontal disease patients; test: Pit formation assay on dentin section; assay type: cell-based, human; conditions: stimulation
[7] = tested on: lymphocytes obtained from these rats; test: Lymphoblast formation in cultured lymphocytes of injected rats; assay type: cell-based, rat
Protocol: (§2) PBS, full-length human Keratin 6 (FLK6) or peptide 1 (K6F) was administered by intragingival injection to the lower left jaw of rats. […] The lymphocytes obtained from these rats were stimulated with FLK6 or K6F and cultured. […] In addition, peripheral blood mononuclear leukocytes were obtained from these rats, stimulated with K6F or scramble peptide (Sc), and expression of RANKL and CD3 were examined by FACS analysis. […] Moreover, alveolar bone destruction in these rats was examined.

[8] = tested on: T cells obtained from peripheral blood of the periodontal disease patients; test: Differentiation of stimulated T cells into polynuclear giant cells, tissue staining; assay type: cell-based, human; conditions: stimulation
Excerpt: T cells obtained from peripheral blood of the periodontal disease patients and healthy subject were stimulated with full-length human Keratin 6 (FL) or peptide 1 (K6F), and differentiation into polynuclear giant cells was observed by tissue staining.

[9] = tested on: peripheral blood mononuclear leukocytes; test: FACS analysis of RANKL and CD3 in peripheral blood mononuclear leukocytes of injected rats; assay type: cell-based, rat; conditions: in vitro stimulation of cells of rats injected with FL6 or K6F
Protocol: as §2

[10] = tested on: p38 MAPK, IκB-α, p65 NFκB in gingiva fibroblast (GF); test: p38 MAPK, IκB-α and p65 NFκB signalling in stimulated gingiva fibroblast; assay type: cell-based; conditions: stimulation 15 min-2 hr
Protocol: as §1, with “as well as expression of IκB-α and phosphorylation of p65 NFκB and activation of representative” left out

rats = test: Intragingival injection to the lower left jaw of rats; assay type: in vivo, rat; conditions: for tumentia of lower jaw lymph node (Lt): injected left side, intragingival injection; for alveolar bone destruction: lower jaw of injected rats
Protocol: as §2

[11] = lymphocytes of healthy subject (Non-PD) and periodontitis patients after treatment (Maintenance Phase)
[12] = lymphocytes of untreated periodontitis patients and patients during treatment, K6 2 or 4 μg/ml, K6F 60 or 30 μg/ml
[13] = in vitro stimulation of lymphocytes of injected rats
[14] = lymphocytes of rats injected with the substance

Molecule	expression of RANKL mRNA [1]	CD positive cells (T cells) that express RANKL [2]	DLST positive samples (T cell proliferation induced) / samples tested ([3]; Healthy subject, N=5)	DLST positive samples (T cell proliferation induced) / samples tested ([3]; Periodontitis patients, N=22)	T cell proliferation induction potency in DLST [3]	expression levels of MMP-2, MMP-3, MCP-1, IL-6, IL-8 [4]	expression of RANKL in lymphocytes (RANKL in lymphocytes; [11])	expression of RANKL in lymphocytes (RANKL in lymphocytes; [12])	activation of representative serine/threonine kinase [5]	binding level to cells, percentage higher than that of the control cell (gingiva fibroblast (GF))	bone resorption pit formation [6]	Lymphoblast formation [7, 13]	Lymphoblast formation [7, 14]	differentiation into polynuclear giant cells [8]	expression of RANKL and CD3 [9]	phosphorylation (activation) of p38 MAPK ([10]; GF)	degradation of IκB and activation of p65 NFκB [10]	tumentia of lower jaw lymph node (Lt) (rats)	alveolar bone destruction (rats)
YEELQITAGRHGDDLRNTK (listed as Homo sapiens) [peptide 1]	tended to increase	remarkably increased	0/5	3/22	remarkable T cell proliferation induction potency	remarkably increased expression	not expressed	increased expression of RANKL	induced activation of ERK and Akt	far higher binding level	formation of a marked bone resorption pit	further enhanced lymphoblast formation	Lymphoblast formation was observed	remarkable differentiation into polynuclear giant cells	enhanced expression of RANKL and CD3	induced activation of p38 MAPK	did not induce degradation of IκB and activation of p65 NFκB	tumentia of lower jaw lymph node	alveolar bone destruction was observed
Full-length human Keratin 6: full-length human Keratin 6 protein, parental protein of peptide 1 (protein, UniProt P02538 1-564, looked up, full-length) MASTSTTIRSHSSSRRGFSANSARLPGVSRSGFSSVSVSRSRGSGGLGGACGGAGFGSRSLYGLGGSKRISIGGGSCAISGGYGSRAGGSYGFGGAGSGFGFGGGAGIGFGLGGGAGLAGGFGGPGFPVCPPGGIQEVTVNQSLLTPLNLQIDPTIQRVRAEEREQIKTLNNKFASFIDKVRFLEQQNKVLETKWTLLQEQGTKTVRQNLEPLFEQYINNLRRQLDSIVGERGRLDSELRGMQDLVEDFKNKYEDEINKRTAAENEFVTLKKDVDAAYMNKVELQAKADTLTDEINFLRALYDAELSQMQTHISDTSVVLSMDNNRNLDLDSIIAEVKAQYEEIAQRSRAEAESWYQTKYEELQVTAGRHGDDLRNTKQEIAEINRMIQRLRSEIDHVKKQCANLQAAIADAEQRGEMALKDAKNKLEGLEDALQKAKQDLARLLKEYQELMNVKLALDVEIATYRKLLEGEECRLNGEGVGQVNISVVQSTVSSGYGGASGVGSGLGLGGGSSYSYGSGLGVGGGFSSSSGRAIGGGLSSVGGGSSTIKYTTTSSSSRKSYKH	tended to increase	remarkably increased	2/5	13/22	remarkable T cell proliferation induction potency		not expressed	increased expression of RANKL			formation of a marked bone resorption pit	further enhanced lymphoblast formation	Lymphoblast formation was observed	remarkable differentiation into polynuclear giant cells				tumentia of lower jaw lymph node	alveolar bone destruction was observed

From patent US10627412B2, “Periodontal-disease-specific peptide, and treatment and diagnosis of periodontal disease using same” (KAGOSHIMA UNIVERSITY, priority 2010, dated 2020)
